According to patent US3959359A, “Phenoxyalkylamines, process for their preparation and therapeutical composition containing same” (priority 1968, dated 1976):
Read-outs that look alike come from different tables or passages of the source.

How the values were obtained:
[1] = test system: isolated heart (coronary rate of flow); experiment: Coronary dilator activity, Langendorff's method on the isolated heart; design: species or system rabbit (Fauve de Bourgogne); ED 50: unit not given beside the values; conditions: for activation at 0.005 mg: 5 γ injected; for activation at 0.01 mg: 10 γ injected; for activation at 0.02 mg: 20 γ injected; for activation at 0.04 mg: 40 γ injected; for activation at 0.08 mg: 80 γ injected; for ED 50: 50% increase of original coronary rate of flow; for activation at 0.16 mg: 160 γ injected; for activation at 0.025 mg: 25 γ injected; for activation at 0.05 mg: 50 γ injected
Method: The coronary dilator activity was studied according to Langendorff's method on the isolated heart.
The tests were carried out on the hearts of young Fauve de Bourgogne (about 1.5 kg) rabbits. The hearts were rapidly taken out and maintained in surviving condition by perfusion of a physiological (Tyrode type) liquid heated at 37°C and oxygenated under a constant pressure of 50-60 cm of water. The heart was perfused countercurrently.
Volumetric determinations of the coronary rate of flow were then recorded at thirty second intervals.
After stabilization of the basic rate of flow, the test compound, dissolved in physiological saline solution, was injected in the perfusion liquid, in a volume of from 0.05 to 0.2 ml.
In the same heart, increasing dosages of all three compounds were tested by injecting alternatively a predetermined dose for each one of the three compounds.
Each injection was made 4-5 minutes after a stable rate of flow was attained.
The tests were carried out as above with three rabbits.

[2] = test system: rat uterus (uterine cornuae); experiment: Uterine relaxant activity, inhibition of spontaneous contractions of the isolated uterus (De Jalon method); design: species or system rat (Sprague Dawley); conditions: 0.5 γ/ml of bath; for uterine relaxant effect: in words
Method: The study was conducted on rat uterus, using the following compounds:
The conventional method of De Jalon, Bayo and De Jalon (1945). Farmacoter. act. 3, 313 -- also reported in the book : "Pharmacological Experiments on Isolated Preparations" by the staff of the Department of Pharmacology, University of Edinburgh, published by E. & S. Livingstone Ltd, London -- was used, the pharmacological investigation being conducted on the uterine cornuae of female rats (Sprague Dawley strain) kept alive in a survival liquid.
A tank containing Tyrode's solution is maintained at a constant temperature of 32°C. The test organ is suspended to a strain gauge for the purpose of recording the contractions on a potentiometric recorder. The uterine cornuae are taken from non-gravid puberal female rats having an average weight of 160 g.
The day prior to the test, the animals are administered a di-ethyl-stilboestrol injection. Postmortem, the cornuae are isolated as rapidly as possible and a 15 mm fragment from which the connective tissue has been removed is placed in the experimental cell.
During oestrum, regular spontaneous contractions (FIG. 1) are noted; such oscillations are stable within 30-60 minutes, after washing several times with suitably oxygenated Tyrode's solution.
Addition to the bath of uterine relaxant material produces, at a low dosage, a total inhibition of such spontaneous contractions.

[3] = test system: duodenum of rats; experiment: Beta-stimulant action, inhibition of acetylcholine-induced contraction of isolated duodenum; design: species or system rat (Sprague Dawley); conditions: 0.1 γ/ml of bath; for % Inhibition of cholinergic contraction (beta-stimulant action): acetylcholine 0.1 γ/ml; for beta-stimulant action: in words
Method: A comparison was made of the beta-stimulant action of the same compounds as used in the above experiment.
The duodenum of rats (Sprague Dawley strain) weighing about 150 g is taken immediately post-mortem. The test organ is immediately placed in a suitable cell for the isolated organ (oxygenated Tyrode's solution maintained at a temperature of 37°C).
Addition of acetylcholine (0.1 γ/ml) to the bath induces a contraction of the organ which is immediately transmitted via a strain gauge to a potentiometric recording device.
Addition of a beta-stimulant material causes inhibition of this […].
A comparison was made between the actions of various materials on cholinergic contractions.

[4] = cited from earlier work
[5] = test system: beta receptor; conditions: International Conference on Duvadilan, May 1962; cited from earlier work
[6] = test system: patients; experiment: Clinical experiments in patients with anginose states or ischemic diseases of the heart; assay type: in vivo, human
Method: The compound prepared in example 4 (1-(1-hydroxypropyl)-4-[2-(1-methyl-phenethylamino)-ethoxy]-benzene hydrochloride) was experimented in four different Cardiology Services. 211 patients were treated with this compound. These patients suffered from different anginose states or from ichemic diseases of the heart (coronary failures or after-effects of infarct). […] Therefore the tolerance is excellent.

[7] = test system: uterus; conditions: in words; cited from earlier work
[8] = compared to Isoxsuprine; cited from earlier work
[9] = Oryctolagus cuniculus, Table I, heart A, read-out: increase of coronary rate of flow
[10] = Oryctolagus cuniculus, Table I, heart B, read-out: increase of coronary rate of flow
[11] = Oryctolagus cuniculus, Table II, heart No. 1, read-out: increase of coronary rate of flow
[12] = Oryctolagus cuniculus, Table II, heart No. 2, read-out: increase of coronary rate of flow
[13] = Oryctolagus cuniculus, Table II, heart No. 3, read-out: increase of coronary rate of flow

Work on `CCC(=O)c1ccc(OCCNC(C)Cc2ccccc2)cc1` (centres unmarked) [Example 1, 4-[2-(1-methyl-phenethylamino)-ethoxy]-propiophenone] yielded an activation at 0.005 mg [1, 9] of 12%, an activation at 0.01 mg [1, 9] of 34% and an activation at 0.02 mg [1, 9] of 47%. It also gave an activation at 0.04 mg [1, 9] of 50%, an activation at 0.08 mg [1, 9] of 80.5% and an activation at 0.01 mg [1, 10] of 8%. For the same compound, the activation at 0.02 mg [1, 10] was 37%, the activation at 0.04 mg [1, 10] was 50% and the activation at 0.08 mg [1, 10] was 62%. For the same compound, the “ED 50” value ([1]; Table I, heart A) was 27 γ, the “ED 50” value ([1]; Table I, heart B) was 44 γ and the “% Inhibition of spontaneous uterine contractions” value [2] was 0%. The uterine relaxant effect [2] was “absolutely no uterine relaxant effect”, the “% Inhibition of cholinergic contraction (beta-stimulant action)” value (“% Inhibition of cholinergic contraction” for short) [3] was 15% and the beta-stimulant action [3] was “only a slight beta-stimulant effect”.
In the case of `CC(COc1ccccc1)NC(C)C(O)c1ccccc1` (centres unmarked) [Compound D, reference compound], the “% Inhibition of spontaneous uterine contractions” value [2] was 70%, the uterine relaxant effect [2] was “reduced uterine relaxant effect” and the “% Inhibition of cholinergic contraction” value [3] was 100%. For the same compound, the beta-stimulant action [3] was “highly beta-stimulant action”.
In the case of `CC(COc1ccccc1)NC(C)C(O)c1ccc(O)cc1` (centres unmarked) [Isoxsuprine, 1-(p-hydroxyphenyl)-2-(1-methyl-2 phenoxyethylamino) propanol-1, reference compound], the ventricular stimulability ([4]; in view of beta-stimulant properties) is given as “increases ventricular stimulability”, the “possible occurrence of extrasystoles” value ([4]; particularly ventricular extrasystoles) is given as “increases also the possible occurrence of extrasystoles” and the “mechanism of uterine relaxant activity” value [5] is given as “essentially due to beta receptor activation”. It also gave an activation at 0.04 mg [1, 11] of 8%, an activation at 0.08 mg [1, 11] of 20% and an activation at 0.16 mg [1, 11] of 50%. It also gave an activation at 0.02 mg [1, 12] of 17%, an activation at 0.04 mg [1, 12] of 43% and an activation at 0.08 mg [1, 12] of 60%. For the same compound, the activation at 0.04 mg [1, 13] was 0%, the activation at 0.08 mg [1, 13] was 17% and the activation at 0.16 mg [1, 13] was 33%. The activation at 0.32 mg ([1]; Oryctolagus cuniculus, Table II, heart No. 3, 320 γ injected, read-out: increase of coronary rate of flow) was 50%, the activation at 0.64 mg ([1]; Oryctolagus cuniculus, Table II, heart No. 3, 640 γ injected, read-out: increase of coronary rate of flow) was 75% and the “% Inhibition of spontaneous uterine contractions” value [2] was 100%. For the same compound, the uterine relaxant effect [2] was “total uterine relaxant action”, the “% Inhibition of cholinergic contraction” value [3] was 100% and the beta-stimulant action [3] was “highly beta-stimulant action”.
`CCCC(=O)c1ccc(OCCNC(C)Cc2ccccc2)cc1` (centres unmarked) [Example 5, 4-[2-(1-methyl-phenethylamino)-ethoxy]-butyrophenone] showed an activation at 0.01 mg [1, 9] of 21%, an activation at 0.025 mg [1, 9] of 57% and an activation at 0.05 mg [1, 9] of 64%. The activation at 0.01 mg [1, 10] was 16%, the activation at 0.025 mg [1, 10] was 39% and the activation at 0.05 mg [1, 10] was 50%. The “ED 50” value ([1]; Table I, heart A) was 24 γ and the “ED 50” value ([1]; Table I, heart B) was 45 γ.
With `CCC(O)c1ccc(OCCNC(C)Cc2ccccc2)cc1` (centres unmarked) [Example 4, 1-(1-hydroxy-propyl)-4[2-(1-methyl-phenethylamino)-ethoxy]-benzene] the contra-indication ([6]; 211 patients) was “no contra-indication”, the “modification of cardiac frequency and arterial pressure” value ([6]; 211 patients) was “no modification of the cardiac frequency and of the arterial pressure” and the tolerance ([6]; 211 patients) was “excellent”. For the same compound, the “favourable results (number of patients)” value ([6]; 211 patients treated) was 172 patients, the “favourable results (share of patients)” value ([6]; 211 patients treated) was 81.5% and the activation at 0.002 mg ([1]; Oryctolagus cuniculus, Table I, heart A, 2 γ injected, read-out: increase of coronary rate of flow) was 10%. It also gave an activation at 0.005 mg [1, 9] of 30%, an activation at 0.01 mg [1, 9] of 33% and an activation at 0.02 mg [1, 9] of 67%. It also gave an activation at 0.04 mg [1, 9] of 93%, an activation at 0.01 mg [1, 10] of 11% and an activation at 0.02 mg [1, 10] of 30%. The activation at 0.04 mg [1, 10] was 55%, the activation at 0.08 mg [1, 10] was 78% and the activation at 0.04 mg [1, 11] was 33%. The activation at 0.08 mg [1, 11] was 54%, the activation at 0.16 mg [1, 11] was 78% and the activation at 0.01 mg [1, 12] was 33%. For the same compound, the activation at 0.02 mg [1, 12] was 50%, the activation at 0.04 mg [1, 12] was 80% and the activation at 0.02 mg [1, 13] was 17%. For the same compound, the activation at 0.04 mg [1, 13] was 46%, the activation at 0.08 mg [1, 13] was 50% and the activation at 0.16 mg [1, 13] was 75%. For the same compound, the “ED 50” value ([1]; Table I, heart A) was 11 γ, the “ED 50” value ([1]; Table I, heart B) was 35 γ and the “% Inhibition of spontaneous uterine contractions” value [2] was 0%. For the same compound, the uterine relaxant effect [2] was “absolutely no uterine relaxant effect”, the “% Inhibition of cholinergic contraction” value [3] was 15% and the beta-stimulant action [3] was “only a slight beta-stimulant effect”.
For `CC(COc1ccccc1)NC(C)Cc1ccccc1` (centres unmarked) [N-(2-phenyl-1-methyl-ethyl)-2-phenoxy-1-methyl-ethylamine], the uterus relaxant activity [7] is given as “uterus relaxants” and the vasodilator activity [8] is given as “reduced vasodilator activity compared to Isoxsuprine”.
